US20060276464A1, “Diarylsulfone sulfonamides and use thereof” (Wyeth, priority 2005, published 2006)
Where two headings read alike, the source gives them in different places.

Target: T1, SFRP-1 (Homo sapiens, UniProt Q8N474)
T1 sequence (Q8N474 32-314): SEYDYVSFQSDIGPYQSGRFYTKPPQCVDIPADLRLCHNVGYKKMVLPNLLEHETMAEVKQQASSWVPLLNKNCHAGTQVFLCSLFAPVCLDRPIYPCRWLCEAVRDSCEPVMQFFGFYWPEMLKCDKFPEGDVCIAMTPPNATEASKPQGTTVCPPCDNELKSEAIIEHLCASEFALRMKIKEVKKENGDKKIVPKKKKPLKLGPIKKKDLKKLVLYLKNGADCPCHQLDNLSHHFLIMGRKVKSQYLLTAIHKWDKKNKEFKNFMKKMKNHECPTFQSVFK
Test: Cell-based assay for in vitro measurement of SFRP-1/SARP2 antagonist activity (U2OS cells co-transfected with 16x TCF-tk-Luciferase reporter, Wnt and hSFRP-1);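 further: U2OS cells co-transfected with a TCF-tk luciferase reporter, a Wnt vector, hSFRP-1 or empty vector and CMV-βgal, luciferase luminescence read in cell lysates alongside βgal activity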
Details: for fold induction at 15 µM / fold induction at 20 µM: U2OS

[1] = read-out: Fold Induction with SFRP-1, Conc 15 μM, with SFRP-1, fold induction over SFRP-1 control, single dose
[2] = read-out: Fold Induction without SFRP-1, Conc 15 μM, without SFRP-1, single dose
[3] = read-out: Fold Induction with SFRP-1, Conc 20 μM, with SFRP-1, fold induction over SFRP-1 control, single dose
[4] = read-out: Fold Induction without SFRP-1, Conc 20 μM, without SFRP-1, single dose

fold induction at 15 µM [1]	fold induction at 15 µM [2]	Fold Induction with SFRP-1 (Conc 15 μM, with SFRP-1, fold induction over SFRP-1 control, single dose) [fold]	fold induction at 20 µM [3]	fold induction at 20 µM [4]	SMILES
2.2	0.5				Cc1ccc(S(=O)(=O)c2ccccc2)cc1S(=O)(=O)NCCCN1CCOCC1 [Example 206, 2-methyl-N-(3-morpholin-4-ylpropyl)-5-(phenylsulfonyl)benzenesulfonamide]
2.3	1.1				Cc1ccc(S(=O)(=O)c2ccccc2)cc1S(=O)(=O)NCCC1CCCN1C (stereo not drawn) [Example 207, 2-methyl-N-[2-(1-methylpyrrolidin-2-yl)ethyl]-5-(phenylsulfonyl)benzenesulfonamide]
2.6	0.9				Cc1ccc(S(=O)(=O)c2ccccc2)cc1S(=O)(=O)NCCc1ccncc1 [Example 208, 2-methyl-5-(phenylsulfonyl)-N-(2-pyridin-4-ylethyl)benzenesulfonamide]
2.2	1.3				Cc1ccc(S(=O)(=O)c2ccccc2)cc1S(=O)(=O)NCCN1CCCCC1 [Example 209, 2-methyl-5-(phenylsulfonyl)-N-(2-piperidin-1-ylethyl)benzenesulfonamide]
2.5	1				Cc1ccc(S(=O)(=O)c2ccccc2)cc1S(=O)(=O)NCCc1c[nH]cn1 [Example 210, N-[2-(1H-imidazol-4-yl)ethyl]-2-methyl-5-(phenylsulfonyl)benzenesulfonamide]
2.3	0.7				Cc1ccc(S(=O)(=O)c2ccccc2)cc1S(=O)(=O)NCCN1CCOCC1 [Example 211, 2-methyl-N-(2-morpholin-4-ylethyl)-5-(phenylsulfonyl)benzenesulfonamide]
2	0.9				Cc1ccc(S(=O)(=O)c2ccccc2)cc1S(=O)(=O)NCCCN1CCCC1=O [Example 212, 2-methyl-N-[3-(2-oxopyrrolidin-1-yl)propyl]-5-(phenylsulfonyl)benzenesulfonamide]
1.8	1.3				CCN(CC)CCNS(=O)(=O)c1cc(S(=O)(=O)c2ccccc2)ccc1C [Example 213, N-[2-(diethylamino)ethyl]-2-methyl-5-(phenylsulfonyl)benzenesulfonamide]
3.2	1.5				Cc1ccc(S(=O)(=O)c2ccccc2)cc1S(=O)(=O)NCCN(C)C [Example 214, N-[2-(dimethylamino)ethyl]-2-methyl-5-(phenylsulfonyl)benzenesulfonamide]
2.9	1				COCCCNS(=O)(=O)c1cc(S(=O)(=O)c2ccccc2)ccc1C [Example 215, N-(3-methoxypropyl)-2-methyl-5-(phenylsulfonyl)benzenesulfonamide]
3.6	1.3				Cc1ccc(S(=O)(=O)c2ccccc2)cc1S(=O)(=O)NCCCN(C)C [Example 216, N-[3-(dimethylamino)propyl]-2-methyl-5-(phenylsulfonyl)benzenesulfonamide]
2.5	1				COCCNS(=O)(=O)c1cc(S(=O)(=O)c2ccccc2)ccc1C [Example 217, N-(2-methoxyethyl)-2-methyl-5-(phenylsulfonyl)benzenesulfonamide]
2.2	1.2				CCN(CC)CCCNS(=O)(=O)c1cc(S(=O)(=O)c2ccccc2)ccc1C [Example 218, N-[3-(diethylamino)propyl]-2-methyl-5-(phenylsulfonyl)benzenesulfonamide]
3.6	1.8				Cc1ccc(S(=O)(=O)c2ccccc2)cc1S(=O)(=O)NCCCN1CCCC1 [Example 220, 2-methyl-5-(phenylsulfonyl)-N-(3-pyrrolidin-1-ylpropyl)benzenesulfonamide]
3	1.2				Cc1ccc(S(=O)(=O)c2ccccc2)cc1S(=O)(=O)NCCCN1CCN(C)CC1 [Example 221, 2-methyl-N-[3-(4-methylpiperazin-1-yl)propyl]-5-(phenylsulfonyl)benzenesulfonamide]
2.4	0.9				CCc1ccc(S(=O)(=O)c2ccccc2)cc1S(=O)(=O)NCCC(=O)OC [Example 222, methyl N-{[2-ethyl-5-(phenylsulfonyl)phenyl]sulfonyl}-beta-alaninate]
3.1	0.9				CCc1ccc(S(=O)(=O)c2ccccc2)cc1S(=O)(=O)NCCc1c[nH]cn1 [Example 225, 2-ethyl-N-[2-(1H-imidazol-4-yl)ethyl]-5-(phenylsulfonyl)benzenesulfonamide]

fold induction at 15 µM [1]	fold induction at 15 µM [2]	Fold Induction with SFRP-1 (Conc 15 μM, with SFRP-1, fold induction over SFRP-1 control, single dose) [fold]	fold induction at 20 µM [3]	fold induction at 20 µM [4]	SMILES
2.6	0.8				CCc1ccc(S(=O)(=O)c2ccccc2)cc1S(=O)(=O)NCCOC [Example 229, 2-ethyl-N-(2-methoxyethyl)-5-(phenylsulfonyl)benzenesulfonamide]
4.2	1.6				CCc1ccc(S(=O)(=O)c2ccccc2)cc1S(=O)(=O)NCCCN1CCCC1 [Example 232, 2-ethyl-5-(phenylsulfonyl)-N-(3-pyrrolidin-1-ylpropyl)benzenesulfonamide]
1.5	1				COC(=O)CCNS(=O)(=O)c1cc(S(=O)(=O)c2ccccc2)ccc1OC [Example 233, methyl N-{[2-methoxy-5-(phenylsulfonyl)phenyl]sulfonyl}-beta-alaninate]
1.2	1				COc1ccc(S(=O)(=O)c2ccccc2)cc1S(=O)(=O)NCCc1ccccn1 [Example 234, 2-methoxy-5-(phenylsulfonyl)-N-(2-pyridin-2-ylethyl)benzenesulfonamide]
1.2	0.9				COc1ccc(S(=O)(=O)c2ccccc2)cc1S(=O)(=O)NCCc1ccncc1 [Example 235, 2-methoxy-5-(phenylsulfonyl)-N-(2-pyridin-4-ylethyl)benzenesulfonamide]
1.2	1				COc1ccc(S(=O)(=O)c2ccccc2)cc1S(=O)(=O)NCCc1c[nH]cn1 [Example 236, N-[2-(1H-imidazol-4-yl)ethyl]-2-methoxy-5-(phenylsulfonyl)benzenesulfonamide]
1.1	0.9	1.4			COc1ccc(S(=O)(=O)c2ccccc2)cc1S(=O)(=O)NCCN1CCOCC1 [Example 237, 2-methoxy-N-(2-morpholin-4-ylethyl)-5-(phenylsulfonyl)benzenesulfonamide]
1.3	0.9				COCCCNS(=O)(=O)c1cc(S(=O)(=O)c2ccccc2)ccc1OC [Example 238, 2-methoxy-N-(3-methoxypropyl)-5-(phenylsulfonyl)benzenesulfonamide]
1.2	1				COc1ccc(S(=O)(=O)c2ccccc2)cc1S(=O)(=O)NCCCN(C)C [Example 239, N-[3-(dimethylamino)propyl]-2-methoxy-5-(phenylsulfonyl)benzenesulfonamide]
1.4	0.9				COCCNS(=O)(=O)c1cc(S(=O)(=O)c2ccccc2)ccc1OC [Example 240, 2-methoxy-N-(2-methoxyethyl)-5-(phenylsulfonyl)benzenesulfonamide]
1.8	1.1				CCN(CC)CCCNS(=O)(=O)c1cc(S(=O)(=O)c2ccccc2)ccc1OC [Example 241, N-[3-(diethylamino)propyl]-2-methoxy-5-(phenylsulfonyl)benzenesulfonamide]
2.3	1.2				COc1ccc(S(=O)(=O)c2ccccc2)cc1S(=O)(=O)NCCCn1ccnc1 [Example 242, N-[3-(1H-imidazol-1-yl)propyl]-2-methoxy-5-(phenylsulfonyl)benzenesulfonamide]
2.4	1.9				COc1ccc(S(=O)(=O)c2ccccc2)cc1S(=O)(=O)NCCCN1CCCC1 [Example 243, 2-methoxy-5-(phenylsulfonyl)-N-(3-pyrrolidin-1-ylpropyl)benzenesulfonamide]
1.3	1.1				Cc1ccc(S(=O)(=O)c2ccccc2)cc1S(=O)(=O)NCCCc1ccccc1 [Example 244, 2-methyl-N-(3-phenylpropyl)-5-(phenylsulfonyl)benzenesulfonamide]
1.9	1.2				CCc1ccc(S(=O)(=O)c2ccccc2)cc1S(=O)(=O)NCCCc1ccccc1 [Example 245, 2-ethyl-N-(3-phenylpropyl)-5-(phenylsulfonyl)benzenesulfonamide]
			2.2	0.8	Cc1ccc(S(=O)(=O)c2ccccc2)cc1S(=O)(=O)NC1Cc2ccccc2C1 [Example 246, N-2,3-dihydro-1H-inden-2-yl-2-methyl-5-(phenylsulfonyl)benzenesulfonamide]
			1.7	0.9	Cc1ccc(S(=O)(=O)c2ccccc2)cc1S(=O)(=O)N[C@H]1C[C@@H]1c1ccccc1 [Example 247, 2-methyl-N-[(1S,2R)-2-phenylcyclopropyl]-5-(phenylsulfonyl)benzenesulfonamide]
